According to the supplement of paper PMC11061612:

Columns and labels:
Experiment in all cases: combination Emax (second highest fraction inhibited in the dose matrix, 72 h); higher = more inhibition; extreme values may be limits of the assay
[1] = test system: KU812 (Chronic Myelogenous Leukemia)
Summary of the method: (§1)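 After 24 hours at 37°C and 5% CO2 in 1536-well plates, cells in DMEM/F12 or RPMI plus 10% FBS received two-drug dose matrices for 72 hours. Viability came from CellTiter-Glo 2.0 luminescence and was scaled as inhibition, anchored at 0 by vehicle wells and at 1 by blank wells. Combination Emax is taken as the second-highest inhibition in the matrix, and Bliss excess as the observed combination effect less EA + EB − EA·EB, with EA and EB the single-agent effects.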

[2] = test system: NCI-H3122 (Lung Adenocarcinoma)
Summary of the method: as §1

[3] = test system: DMS-114 (Small Cell Lung Carcinoma)
Summary of the method: as §1

[4] = test system: VMRC-RCZ (Kidney Carcinoma)
Summary of the method: as §1

[5] = test system: SU-DHL-5 (B-Cell Non-Hodgkin's Lymphoma)
Summary of the method: as §1

[6] = test system: CHSA8926 (Chondrosarcoma)
Summary of the method: as §1

M059J (Glioblastoma) = test system: M059J (Glioblastoma)
Summary of the method: as §1

[7] = test system: MOG-G-CCM (Low Grade Glioma)
Summary of the method: as §1

[8] = test system: KYSE-270 (Esophageal Squamous Cell Carcinoma)
Summary of the method: as §1

[9] = test system: COR-L279 (Small Cell Lung Carcinoma)
Summary of the method: as §1

[10] = test system: CW-2 (Colorectal Carcinoma)
Summary of the method: as §1

[11] = test system: ST486 (Burkitt's Lymphoma)
Summary of the method: as §1

[12] = test system: IM-95 (Gastric Carcinoma)
Summary of the method: as §1

[13] = test system: NCI-H520 (Squamous Cell Lung Carcinoma)
Summary of the method: as §1

[14] = test system: SK-GT-4 (Esophageal Adenocarcinoma)
Summary of the method: as §1

[15] = test system: NCI-H929 (Plasma Cell Myeloma)
Summary of the method: as §1

[16] = test system: KY821 (Acute Myeloid Leukemia)
Summary of the method: as §1

SJSA-1 (Osteosarcoma) = test system: SJSA-1 (Osteosarcoma)
Summary of the method: as §1

[17] = test system: NCI-H661 (Non-Small Cell Lung Carcinoma)
Summary of the method: as §1

[18] = test system: MN-60 (B-Lymphoblastic Leukemia)
Summary of the method: as §1

Row | Structure (SMILES) | combination Emax [1] | combination Emax [2] | combination Emax [3] | combination Emax [4] | combination Emax [5] | combination Emax [6] | combination Emax (M059J (Glioblastoma)) | combination Emax [7] | combination Emax [8] | combination Emax [9] | combination Emax [10] | combination Emax [11] | combination Emax [12] | combination Emax [13] | combination Emax [14] | combination Emax [15] | combination Emax [16] | combination Emax (SJSA-1 (Osteosarcoma)) | combination Emax [17] | combination Emax [18]
1 | CC1(C)CCC(CN2CCN(c3ccc(C(=O)NS(=O)(=O)c4ccc(NCC5CCOCC5)c([N+](=O)[O-])c4)c(Oc4cnc5[nH]ccc5c4)c3)CC2)=C(c2ccc(Cl)cc2)C1 [Venetoclax] + C[C@@H](Nc1cc(F)cc(F)c1)c1cc(C(=O)N(C)C)cc2c(=O)cc(N3CCOCC3)oc12 [AZD8186] (first compound max 1 µM, 7x7, partner max 3 µM) | 0.205 | 0.134 | 0.113 | 0.201 | 0.984 | 0.478 | 0.306 | 0.398 | 0.653 | 0.394 | 0.0925 | 0.695 | 0.208 | 0.488 | 0.229 | 0.811 | 1 | 0.123 | 0.164 | 0.418
2 | CN(CCO)CC[C@H](CSc1ccccc1)Nc1ccc(S(=O)(=O)NC(=O)c2ccc(N3CCC([C@@H](O)c4ccccc4-c4ccc(Cl)cc4)CC3)cc2)cc1S(=O)(=O)C(F)(F)F [AZD4320] + Cn1cnc2c(F)c(Nc3ccc(Br)cc3Cl)c(C(=O)NOCCO)cc21 [Selumetinib] (first compound max 1 µM, 7x7, partner max 3 µM) | 0.966 | 0.538 | 0.358 | 0.238 | 0.962 | 0.643 | 0.3 | 0.576 | 0.389 | 0.997 | 0.216 | 0.866 | 0.876 | 0.203 | 0.624 | 0.631 | 1 | 0.429 | 0.264 | 0.321
3 | Cc1c2c(nn1C)CSCc1cc(n(C)n1)CSc1cc(c3ccccc3c1)OCCCc1c(C(=O)O)n(C)c3c-2c(Cl)ccc13 [AZD5991] + CC1(C)CCC(CN2CCN(c3ccc(C(=O)NS(=O)(=O)c4ccc(NCC5CCOCC5)c([N+](=O)[O-])c4)c(Oc4cnc5[nH]ccc5c4)c3)CC2)=C(c2ccc(Cl)cc2)C1 [Venetoclax] (first compound max 1 µM, 7x7, partner max 1 µM) | 0.902 | 0.275 | 0.911 | 0.21 | 1 | 0.506 | 0.347 | 0.433 | 0.822 | 0.244 | 0.151 | 0.974 | 0.837 | 0.201 | 0.2 | 1 | 1 | 0.296 | 0.561 | 0.323
4 | CC1(C)CCC(CN2CCN(c3ccc(C(=O)NS(=O)(=O)c4ccc(NCC5CCOCC5)c([N+](=O)[O-])c4)c(Oc4cnc5[nH]ccc5c4)c3)CC2)=C(c2ccc(Cl)cc2)C1 [Venetoclax] + COc1cc(Nc2ncc3c(n2)-c2ccc(Cl)cc2C(c2c(F)cccc2OC)=NC3)ccc1C(=O)O [Alisertib] (first compound max 1 µM, 7x7, partner max 10 µM) | 0.838 | 0.336 | 0.555 | 0.21 | 0.803 | 0.531 | 0.636 | 0.806 | 0.627 | 0.82 | 0.16 | 0.909 | 0.412 | 0.54 | 0.444 | 0.662 | 1 | 0.33 | 0.26 | 0.291
5 | COc1cccc(OCCCN)c1-c1cc(Nc2cnc(C#N)cn2)n[nH]1 [Prexasertib] + C=CCn1c(=O)c2cnc(Nc3ccc(N4CCN(C)CC4)cc3)nc2n1-c1cccc(C(C)(C)O)n1 [AZD1775] (first compound max 1 µM, partner max 1 µM) | 0.819 | 0.896 | 0.385 | 0.388 | 1 | 0.531 | 0.822 | 0.821 | 1 | 0.881 | 0.601 | 1 | 0.691 | 0.853 | 0.758 | 0.847 | 1 | 0.686 | 0.788 | 0.653
6 | Cc1c2c(nn1C)CSCc1cc(n(C)n1)CSc1cc(c3ccccc3c1)OCCCc1c(C(=O)O)n(C)c3c-2c(Cl)ccc13 [AZD5991] + C[C@@H](Nc1cc(F)cc(F)c1)c1cc(C(=O)N(C)C)cc2c(=O)cc(N3CCOCC3)oc12 [AZD8186] (first compound max 1 µM, 7x7, partner max 3 µM) | 0.862 | 0.352 | 0.61 | 0.287 | 1 | 0.797 | 0.421 | 0.447 | 0.622 | 0.624 | 0.139 | 0.829 | 0.817 | 0.644 | 0.288 | 1 | 1 | 0.34 | 0.6 | 0.343
7 | CN(CCO)CC[C@H](CSc1ccccc1)Nc1ccc(S(=O)(=O)NC(=O)c2ccc(N3CCC([C@@H](O)c4ccccc4-c4ccc(Cl)cc4)CC3)cc2)cc1S(=O)(=O)C(F)(F)F [AZD4320] + C=CCn1c(=O)c2cnc(Nc3ccc(N4CCN(C)CC4)cc3)nc2n1-c1cccc(C(C)(C)O)n1 [AZD1775] (first compound max 1 µM, partner max 1 µM) | 0.956 | 0.845 | 0.373 | 0.39 | 1 | 0.852 | 0.783 | 0.733 | 0.632 | 1 | 0.324 | 1 | 0.791 | 0.76 | 0.349 | 0.402 | 1 | 0.392 | 0.613 | 0.292
8 | CN(C)CCCOc1ccc(-c2ccc3ncc4c(c3c2)n(C2CCOCC2)c(=O)n4C)cn1 [AZD0156] + C=CCn1c(=O)c2cnc(Nc3ccc(N4CCN(C)CC4)cc3)nc2n1-c1cccc(C(C)(C)O)n1 [AZD1775] (first compound max 1 µM, partner max 1 µM) | 0.789 | 0.765 | 0.257 | 0.206 | 0.977 | 0.49 | 0.628 | 0.4 | 0.676 | 0.454 | 0.292 | 0.987 | 0.454 | 0.789 | 0.4 | 0.675 | 0.987 | 0.17 | 0.523 | 0.374
9 | C[C@@H]1COCCN1c1cc(C2([S@](C)(=N)=O)CC2)nc(-c2ccnc3[nH]ccc23)n1 [AZD6738] + O=C(c1cc(Cc2n[nH]c(=O)c3ccccc23)ccc1F)N1CCN(C(=O)C2CC2)CC1 [Olaparib] (first compound max 10 µM, 7x7, partner max 10 µM) | 0.806 | 0.726 | 0.528 | 0.319 | 1 | 0.36 | 0.684 | 0.42 | 0.794 | 0.927 | 0.473 | 0.909 | 0.459 | 0.752 | 0.51 | 0.668 | 0.97 | 0.377 | 0.54 | 0.528
10 | Cc1cc2ncnn2cc1Nc1ncc2c(n1)n(C1CCOCC1)c(=O)n2C [AZD7648] + CCN(CCO)CCCOc1ccc2c(Nc3cc(CC(=O)Nc4cccc(F)c4)[nH]n3)ncnc2c1 [AZD2811] (first compound max 10 µM, 7x7, partner max 1 µM) | 0.66 | 0.548 | 0.306 | 0.276 | 0.993 | 0.47 | 0.457 | 0.445 | 0.183 | 0.757 | 0.164 | 0.831 | 0.424 | 0.704 | 0.389 | 0.838 | 0.495 | 0.359 | 0.308 | 0.185
11 | Cc1c2c(nn1C)CSCc1cc(n(C)n1)CSc1cc(c3ccccc3c1)OCCCc1c(C(=O)O)n(C)c3c-2c(Cl)ccc13 [AZD5991] + CN(C)CCCOc1ccc(-c2ccc3ncc4c(c3c2)n(C2CCOCC2)c(=O)n4C)cn1 [AZD0156] (first compound max 1 µM, 7x7, partner max 1 µM) | 0.828 | 0.405 | 0.548 | 0.21 | 1 | 0.497 | 0.338 | 0.249 | 0.542 | 0.496 | 0.154 | 0.805 | 0.824 | 0.509 | 0.277 | 1 | 1 | 0.322 | 0.505 | 0.177
12 | COc1cccc2c1C(=O)c1c(O)c3c(c(O)c1C2=O)C[C@@](O)(C(=O)CO)C[C@@H]3O[C@H]1C[C@H](N)[C@H](O)[C@H](C)O1 [Doxorubicin] + Cc1cc2ncnn2cc1Nc1ncc2c(n1)n(C1CCOCC1)c(=O)n2C [AZD7648] (first compound max 1 µM, 7x7, partner max 10 µM) | 0.822 | 0.921 | 0.551 | 0.317 | 1 | 0.701 | 0.829 | 0.663 | 0.944 | 1 | 0.231 | 0.955 | 0.7 | 0.771 | 0.593 | 0.994 | 0.983 | 0.864 | 0.753 | 0.833
